How the values were obtained:
[1] = tested on: PD-L1-mediated suppression of human T-cell activation; details: in vitro; cited from earlier work
[2] = tested on: xenograft model; details: via a T-cell dependent mechanism; cited from earlier work
[3] = tested on: resectable non-small cell lung cancer (R-NSCLC); experiment: AEGEAN phase III: pathological response (pCR, MPR) by central pathology review; assay type: in vivo, human; details: final analysis
Excerpt: As used herein, the terms “pathological complete response” or “pathological CR” or “pCR” refer to the proportion of patients who have 0% residual viable tumor cells within all resected tissue (including primary lung lesion and lymph nodes) following neoadjuvant treatment as assessed by central pathology laboratory. […] Central pathology assessment of pCR will be performed according to the recommended methods and definitions described by IASLC 2020 (Travis et al. “IASLC Multidisciplinary Recommendations for Pathologic Assessment of Lung Cancer Resection Specimens After Neoadjuvant Therapy.” J Thorac Oncol. 2020 May; 15(5):709-740. doi:10.1016/j.jtho.2020.01.005). The analysis can be performed using a Cochran-Mantel-Haenszel (CMH) test, stratified by disease stage (Stage II versus Stage III) and PD-L1 expression status (<1% versus ≥1%). The effect of treatment will be estimated by the difference in proportions between treatment groups, together with their corresponding CI and p-value.
As used herein, the terms “major pathological response” and “mPR” refer to the proportion of patients with 10% or less residual viable tumor tissue in lung primary tumor after neoadjuvant treatment at the time of resection as assessed per central pathology laboratory. […]
Primary tumors and sampled lymph nodes were assessed for pathological response to neoadjuvant treatment by central pathology review using recommendations from the IASLC. […] 2020 May; 15(5):709-740. doi: 10.1016/j.jtho.2020.01.005; Hellmann et al. “Pathological response after neoadjuvant chemotherapy in resectable non-small-cell lung cancers: proposal for the use of major pathological response as a surrogate endpoint.” Lancet Oncol 2014; 15(1):e42-50; Cottrell et al. “Pathologic features of response to neoadjuvant anti-PD-1 in resected non-small-cell lung carcinoma: a proposal for quantitative immune-related pathologic response criteria (irPRC).” Ann Oncol 2018; 29(8):1853-1860). […]
For pathological endpoints, response rates were compared between treatment arms using a stratified Cochran-Mantel-Haenszel test; the treatment effect was estimated by the differences in response rates, with their corresponding 95% confidence intervals (CIs) calculated by the stratified Miettinen and Nurminen method. EFS was compared between the treatment arms using a stratified log-rank test; the treatment effect was estimated by HRs and 95% CIs calculated with stratified Cox-proportional-hazards models. […] For pCR, the differences in response rates were calculated for each subgroup, with corresponding 95% CIs estimated using an unstratified Miettinen and Nurminen method; for EFS, HRs and 95% CIs were calculated for each subgroup using a Cox-proportional-hazards model with treatment as the only covariate.

[4] = tested on: resectable non-small cell lung cancer (R-NSCLC); experiment: AEGEAN phase III: objective response prior to surgery, BICR (RECIST v1.1); assay type: in vivo, human; details: mITT N = 366
Method: Tumors were evaluated per RECIST v1.1 using imaging collected at the following timepoints: baseline (≤28 days before randomization); after completing neoadjuvant treatment and before surgery; 5 weeks (±2 weeks) after surgery and before starting adjuvant treatment; every 12 weeks (±1 week) until Week 48 after surgery; every 24 weeks (±2 weeks) until Week 192 (i.e., ~4 years post-surgery); and every 48 weeks (±2 weeks) thereafter until local or distant recurrence, consent withdrawal, or death.
Efficacy assessments were performed and determined by pathology review or a BICR using RECIST 1.1 assessment, as applicable, including EFS (mITT and PD-L1 TC≥1% analysis set), pCR (mITT and PD-L1 TC≥1% analysis set), mPR (mITT and PD-L1 TC≥1% analysis set), DFS (modified resected set and PD-L1 TC≥1% resected set), and OS (mITT and PD-L1 TC≥1% analysis set). The EFS event of PD that precludes surgery or PD discovered during surgery that prevents completion of surgery will be determined by the Investigator.

Substance: Durvalumab: antibody that selectively binds PD-L1 and blocks binding of PD-L1 to PD-1 and CD80; arm given with platinum-based chemotherapy before surgery
- PD-L1-mediated suppression of human T-cell activation [1]: can relieve PD-L1-mediated suppression of human T-cell activation in vitro
- tumor growth in a xenograft model [2]: inhibits tumor growth in a xenograft model
- MPR, proportion of patients ([3]; mITT N=366, central review): 33.3%
- pCR, proportion of patients ([3]; mITT N=366, central review): 17.2%
- MPR difference in proportions, durvalumab arm versus placebo arm ([3]; mITT N=740): 21.0
- pCR difference in proportions, durvalumab arm versus placebo arm ([3]; mITT N=740): 13.0%
- Complete response: number of patients [4]: 4
- Complete response: patients [4]: (1.1) %
- Not evaluable (objective response): number of patients [4]: 25
- Not evaluable (objective response): patients [4]: (6.8) %
- Objective response rate [4]: (56.3) %
- Objective response rate: number of patients [4]: 206
- Partial response: number of patients [4]: 202
- Partial response: patients [4]: (55.2) %
- Progression: number of patients [4]: 11
- Progression: patients [4]: (3.0) %
- Stable disease: number of patients [4]: 124
- Stable disease: patients [4]: (33.9) %

Source: US20260284189A1, “TREATMENT OF NON-SMALL CELL LUNG CANCER” (ASTRAZENECA AB, priority 2023, published 2026)
